Assay results taken from US9073918B2, “Pyrazolo[4,3-b]pyridine-7-amine inhibitors of ALK5” (Takeda Pharmaceutical Company Limited, priority 2010, dated 2015).
pIC50: −log10 of the molar value.

How the values were obtained:
cellular TGF-β R1 ALK5 = target: T1, cellular TGF-β R1 ALK5 (Homo sapiens, UniProt P36897); test: Cellular inhibition of ALK5 (CellSensor SBE-bla HEK 293T beta-lactamase reporter); type: cell-based; conditions: cellular inhibition of ALK5, SBE-bla HEK 293T cells, TGFb-1 stimulated 5 hours; average where measured in multiple experiments
T1 construct: host or cells: CellSensor SBE-bla HEK 293T
T1 sequence (P36897 34-503): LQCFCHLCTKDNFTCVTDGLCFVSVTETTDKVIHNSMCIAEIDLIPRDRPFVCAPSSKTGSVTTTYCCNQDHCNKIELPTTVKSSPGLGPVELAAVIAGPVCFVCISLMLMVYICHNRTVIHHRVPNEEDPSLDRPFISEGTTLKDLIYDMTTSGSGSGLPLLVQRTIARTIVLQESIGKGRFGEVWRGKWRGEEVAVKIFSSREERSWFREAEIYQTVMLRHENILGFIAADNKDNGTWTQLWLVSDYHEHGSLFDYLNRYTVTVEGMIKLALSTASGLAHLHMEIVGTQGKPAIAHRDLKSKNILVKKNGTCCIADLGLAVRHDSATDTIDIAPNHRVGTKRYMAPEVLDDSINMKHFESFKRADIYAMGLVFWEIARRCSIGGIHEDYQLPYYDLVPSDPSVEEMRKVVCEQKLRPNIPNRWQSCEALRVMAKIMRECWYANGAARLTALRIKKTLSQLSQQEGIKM
Source text: Test compounds were screened for cellular TGF-β R1 ALK5 inhibition by use of a CellSensor® SBE-bla HEK 293T (K1550, Invitrogen Corp. Madison, Wis.) cell line. The CellSensor® SBE-bla HEK 293T cell line contains a beta-lactamase reporter gene under control of the SBE response element stably integrated into HEK 293T cells. The SBE response element is a DNA region that binds activated SMADs which results from the binding of TGF-β to, and subsequent activation of ALK5.
The assay procedure was as follows:
CellSensor® SBE-bla HEK 293T cell line were plated at 12,000 cells/well in 40 ul DMEM plus 5 ug/ml blasticidin into 384-well, black-wall, clear-bottom assay plate and incubated overnight.
The following day 5 uL of 10×, 2.5-fold serially diluted test compounds in DMSO were added into cells to a final compound concentration of 1× and DMSO concentration of 0.5%. Assay was incubated for 1 hour at 37° C., 5% CO2, 5 uL of 100 ng/mL TGFb-1 was then added to activate ALK5 and incubated for 5 hours at 37° C., 5% CO2, 10 uL of detector, LiveBLAzer FRET B/G substrate (CCF4-AM, Invitrogen Corp. Madison, Wis.) was added to cells and incubated for 2 hours at RT. Assay was measured using Spectramax, a bottom-read fluorescence plate reader, at excitation setting of 405 nm and emission settings of 460 nm and 530 nm.
Response is defined as the ratio of background corrected 460 nm emission values/background corrected 530 nm emission values. Cellular activity was defined as percent inhibition of uninhibited ALK5 activity (wells treated with DMSO+TGF-β). The percent inhibition of cellular ALK5 at a given compound concentration is defined as: 100%×[1−(response compound+TGF-β/response DMSO+TGF-β)] where response compound+TGF-β is defined as the activity in the presence of test compound and response DMSO+TGF-β is defined as the uninhibited cellular ALK5 activity. The pIC50 value (negative log of the molar concentration of the compound that produces 50% inhibition) of a test compound is calculated by non-linear least squares curve fitting. pIC50 values, the negative of the log of the IC50, are calculated by non-linear curve fitting of the compound concentrations and percent of inhibition to the standard pIC50 equation.
Where inhibition was measured in multiple experiments the value in Table 2 is an average. N.T. means not tested.

TGF-β R1 ALK5 = target: T2, TGF-β R1 ALK5 (Homo sapiens, UniProt P36897); test: In vitro inhibition of ALK5 (LanthaScreen activity assay, TR-FRET); type: biochemical
T2 construct: purchased Invitrogen PV5837
T2 sequence (P36897 34-503): T1 sequence (P36897 34-503)
Method: Test compounds were screened for TGF-β R1 ALK5 inhibition by use of a LanthaScreen™ activity assay (PV5837 Invitrogen, Invitrogen Corp. Madison, Wis.).
In brief, the assay procedure was as follows:
Solutions of test compounds were prepared in DMSO and diluted two-fold serially.
Assays were incubated for 90 minutes at room temperature and then quenched by the addition of 60 mM EDTA and 8 nM Terbium labeled anti-pSMAD3 Antibody (M4337 from Invitrogen) giving a final concentration of 15 mM EDTA and 2 nM Terbium labeled anti-pSMAD3 Antibody. Phosphorylated peptide product was quantified by measuring an increase in TR-FRET on a BMG LABTECH PHERA star plus. Response is defined as the ratio of Channel A/Channel B. The response of a blank (uninhibited) using vehicle alone is also determined. Enzyme activity was defined as the response of uninhibited enzyme activity minus the response of assays containing no enzyme. The percent inhibition of ALK5 at a given compound concentration is defined as: 100%×[1−(response compound/response blank)]
where response compound is defined as the enzyme activity in the presence of test compound and response blank is defined as the uninhibited enzyme activity. The pIC50 value (negative log of the molar concentration of the compound that produces 50% inhibition) of a test compound is calculated by non-linear least squares curve fitting of the equation: Percent Inhibition=100%/(1+(10−pIC50/10 log [I])).
Where inhibition was measured in multiple experiments the value in Table 1 is an average. N.T. means not tested.

SMILES	pIC50 (cellular TGF-β R1 ALK5)	pIC50 (TGF-β R1 ALK5)
Cc1ccc(F)c(-c2cc(Nc3ccnc4cnn(C(C)C)c34)c(C)cn2)n1 [Example 5, N-(3′-fluoro-5,6′-dimethyl-2,2′-bipyridin-4-yl)-1-isopropyl-1H-pyrazolo[4,3-b]pyridin-7-amine]	6.70	7.40
COCCn1cc2ncc(F)c(Nc3cc(-c4cc(Cl)ccc4F)ncc3C)c2n1 [Example 16, N-(2-(5-chloro-2-fluorophenyl)-5-methylpyridin-4-yl)-6-fluoro-2-(2-methoxyethyl)-2H-pyrazolo[4,3-b]pyridin-7-amine]	6.30	7.50
Fc1ccc(Cl)cc1-c1cc(Nc2ccnc3cn[nH]c23)ccn1 [Example 17, N-(2-(5-chloro-2-fluorophenyl)pyridin-4-yl)-1H-pyrazolo[4,3-b]pyridin-7-amine]	7.30	8.30
CCCn1ncc2nccc(Nc3ccnc(-c4cc(Cl)ccc4F)c3)c21 [Example 18, N-(2-(5-chloro-2-fluorophenyl)pyridin-4-yl)-1-propyl-1H-pyrazolo[4,3-b]pyridin-7-amine]	6.20	7.30
CCCn1cc2nccc(Nc3ccnc(-c4cc(Cl)ccc4F)c3)c2n1 [Example 19, N-(2-(5-chloro-2-fluorophenyl)pyridin-4-yl)-2-propyl-2H-pyrazolo[4,3-b]pyridin-7-amine]	6.40	7.30
CC(C)n1ncc2nccc(Nc3ccnc(-c4cc(Cl)ccc4F)c3)c21 [Example 20, N-(2-(5-chloro-2-fluorophenyl)pyridin-4-yl)-1-isopropyl-1H-pyrazolo[4,3-b]pyridin-7-amine]	7.00	7.40
CCNC(=O)N1CCC(Cn2cc3nccc(Nc4ccnc(-c5cc(Cl)ccc5F)c4)c3n2)CC1 [Example 28, 4-((7-(2-(5-chloro-2-fluorophenyl)pyridin-4-ylamino)-2H-pyrazolo[4,3-b]pyridin-2-yl)methyl)-N-ethylpiperidine-1-carboxamide]	5.60	5.60
CNC(=O)Cn1ncc2nccc(Nc3ccnc(-c4cc(Cl)ccc4F)c3)c21 [Example 31, 2-(7-(2-(5-chloro-2-fluorophenyl)pyridin-4-ylamino)-1H-pyrazolo[4,3-b]pyridin-1-yl)-N-methylacetamide]	6.70	6.70
COCCCn1cc2nccc(Nc3ccnc(-c4cc(Cl)ccc4F)c3)c2n1 [Example 34, N-(2-(5-chloro-2-fluorophenyl)pyridin-4-yl)-2-(3-methoxypropyl)-2H-pyrazolo[4,3-b]pyridin-7-amine]	6.40	6.40
OC[C@@H](O)Cn1cc2nccc(Nc3ccnc(-c4cc(Cl)ccc4F)c3)c2n1 [Example 47, (S)-3-(7-(2-(5-chloro-2-fluorophenyl)pyridin-4-ylamino)-2H-pyrazolo[4,3-b]pyridin-2-yl)propane-1,2-diol]	6.40	
CNC(=O)Cn1ncc2nccc(Nc3cc(-c4cc(F)ccc4F)ncc3C)c21 [Example 159, 2-(7-(2-(2,5-difluorophenyl)-5-methylpyridin-4-ylamino)-1H-pyrazolo[4,3-b]pyridin-1-yl)-N-methylacetamide]		7.40

Second part, the molecule after the results:

pIC50 (cellular TGF-β R1 ALK5)	pIC50 (TGF-β R1 ALK5)	SMILES
7.30	8.00	Cc1cnc(-c2cc(Cl)ccc2F)nc1Nc1ccnc2cn[nH]c12 [Example 1, N-(2-(5-chloro-2-fluorophenyl)-5-methylpyrimidin-4-yl)-1H-pyrazolo[4,3-b]pyridin-7-amine]
7.10	8.20	CNC(=O)n1ncc2nccc(Nc3nc(-c4cc(Cl)ccc4F)ncc3C)c21 [Example 2, 7-(2-(5-chloro-2-fluorophenyl)-5-methylpyrimidin-4-ylamino)-N-methyl-1H-pyrazolo[4,3-b]pyridine-1-carboxamide]
7.60	8.30	Cc1cccc(-c2cc(Nc3ccnc4cn[nH]c34)c(C)cn2)n1 [Example 6, N-(5,6′-dimethyl-2,2′-bipyridin-4-yl)-1H-pyrazolo[4,3-b]pyridin-7-amine]
6.70	7.80	Cc1ccc(F)c(-c2cc(Nc3ccnc4cn(C[C@H](O)CO)nc34)c(C)cn2)n1 [Example 7, (S)-3-(7-(3′-fluoro-5,6′-dimethyl-2,2′-bipyridin-4-ylamino)-2H-pyrazolo[4,3-b]pyridin-2-yl)propane-1,2-diol]
7.70	8.00	Cc1ccc(F)c(-c2cc(Nc3ccnc4cnn(CCO)c34)c(C)cn2)n1 [Example 10, 2-(7-(3′-fluoro-5,6′-dimethyl-2,2′-bipyridin-4-ylamino)-1H-pyrazolo[4,3-b]pyridin-1-yl)ethanol]
6.10	7.00	Fc1ccc(Cl)cc1-c1cc(Nc2ccnc3cnn(C4CCOCC4)c23)ccn1 [Example 21, N-(2-(5-chloro-2-fluorophenyl)pyridin-4-yl)-1-(tetrahydro-2H-pyran-4-yl)-1H-pyrazolo[4,3-b]pyridin-7-amine]
6.00	7.20	Fc1ccc(Cl)cc1-c1cc(Nc2ccnc3cn(CC4CCNCC4)nc23)ccn1 [Example 27, N-(2-(5-chloro-2-fluorophenyl)pyridin-4-yl)-2-(piperidin-4-ylmethyl)-2H-pyrazolo[4,3-b]pyridin-7-amine]
7.00	7.00	CCNC(=O)n1ncc2nccc(Nc3ccnc(-c4cc(Cl)ccc4F)c3)c21 [Example 29, 7-(2-(5-chloro-2-fluorophenyl)pyridin-4-ylamino)-N-ethyl-1H-pyrazolo[4,3-b]pyridine-1-carboxamide]
7.30	7.30	CNC(=O)n1ncc2nccc(Nc3ccnc(-c4cc(Cl)ccc4F)c3)c21 [Example 32, 7-(2-(5-chloro-2-fluorophenyl)pyridin-4-ylamino)-N-methyl-1H-pyrazolo[4,3-b]pyridine-1-carboxamide]
6.70	6.70	COCCCn1ncc2nccc(Nc3ccnc(-c4cc(Cl)ccc4F)c3)c21 [Example 33, N-(2-(5-chloro-2-fluorophenyl)pyridin-4-yl)-1-(3-methoxypropyl)-1H-pyrazolo[4,3-b]pyridin-7-amine]
6.20	6.20	Fc1ccc(Cl)cc1-c1cc(Nc2ccnc3cnn(CC4CC4)c23)ccn1 [Example 36, N-(2-(5-chloro-2-fluorophenyl)pyridin-4-yl)-1-(cyclopropylmethyl)-1H-pyrazolo[4,3-b]pyridin-7-amine]
6.40	7.20	Fc1ccc(Cl)cc1-c1cc(Nc2ccnc3cn(CC4CC4)nc23)ccn1 [Example 37, N-(2-(5-chloro-2-fluorophenyl)pyridin-4-yl)-2-(cyclopropylmethyl)-2H-pyrazolo[4,3-b]pyridin-7-amine]
